The target of experiment [1] is Cyclin-dependent kinase 5/CDK5 activator 1 (Homo sapiens, UniProt Q00535). Nature of the experiment: (§1) Inhibition of human recombinant GST-fused CDK5/P25 expressed in insect Sf9 cells using RBER-CHKtide as substrate assessed as incorporation of 33Pi after 60 mins by microplate scintillation counting analysis.
Experiment [2] concerns the target Cyclin-dependent kinase 1/cyclin B1 (Homo sapiens) (UniProt P06493+P14635). Description: (§2) Inhibition of human recombinant GST-fused CDK1/cyclin B expressed in insect Sf9 cells using RBER-CHKtide as substrate assessed as incorporation of 33Pi after 60 mins by microplate scintillation counting analysis.
Experiment [3] addresses Cyclin-dependent kinase 5/CDK5 activator 1 (Homo sapiens) (UniProt Q00535+Q15078). The description is as §1.
Experiment [4] concerns the target Glycogen synthase kinase-3 beta (Homo sapiens, UniProt P49841). Nature of the experiment: Inhibition of human recombinant GST-fused GSK-3beta expressed in insect Sf9 cells using RBER-CHKtide as substrate assessed as incorporation of 33Pi after 60 mins by microplate scintillation counting analysis.
Experiment [5] addresses Cyclin-dependent kinase 1/cyclin B1 (Homo sapiens, UniProt P06493). The description is as §2.

A word on the Ki: it is the dissociation constant of the complex between target and ligand, obtained from inhibition or displacement.

Activity calls are given as the source filed them. No cut-off for these calls is given here.

Chain of Cyclin-dependent kinase 1/cyclin B1 (P06493 whole entry): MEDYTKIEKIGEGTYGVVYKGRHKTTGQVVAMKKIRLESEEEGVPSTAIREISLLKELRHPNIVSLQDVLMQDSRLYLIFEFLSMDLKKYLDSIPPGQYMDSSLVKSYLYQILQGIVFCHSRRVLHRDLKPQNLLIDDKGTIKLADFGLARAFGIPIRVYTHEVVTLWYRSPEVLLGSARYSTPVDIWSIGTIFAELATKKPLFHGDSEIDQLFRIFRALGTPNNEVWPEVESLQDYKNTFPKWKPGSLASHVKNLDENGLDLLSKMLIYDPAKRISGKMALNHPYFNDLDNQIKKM
Chain of Cyclin-dependent kinase 1/cyclin B1 (P14635 whole entry, further chain): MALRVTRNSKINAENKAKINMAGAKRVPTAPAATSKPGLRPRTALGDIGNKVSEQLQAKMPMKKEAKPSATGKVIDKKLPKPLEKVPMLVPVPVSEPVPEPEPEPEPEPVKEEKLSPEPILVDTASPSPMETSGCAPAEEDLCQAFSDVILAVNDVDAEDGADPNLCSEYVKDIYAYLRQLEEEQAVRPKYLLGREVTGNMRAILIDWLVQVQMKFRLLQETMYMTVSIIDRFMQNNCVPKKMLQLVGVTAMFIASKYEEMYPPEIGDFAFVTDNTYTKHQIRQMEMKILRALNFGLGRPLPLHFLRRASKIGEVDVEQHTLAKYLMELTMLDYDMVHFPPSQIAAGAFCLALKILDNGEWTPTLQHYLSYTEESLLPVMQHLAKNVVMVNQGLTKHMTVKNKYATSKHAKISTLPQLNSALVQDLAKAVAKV
Chain of Cyclin-dependent kinase 5/CDK5 activator 1 (Q00535 whole entry, the tested form may be a part): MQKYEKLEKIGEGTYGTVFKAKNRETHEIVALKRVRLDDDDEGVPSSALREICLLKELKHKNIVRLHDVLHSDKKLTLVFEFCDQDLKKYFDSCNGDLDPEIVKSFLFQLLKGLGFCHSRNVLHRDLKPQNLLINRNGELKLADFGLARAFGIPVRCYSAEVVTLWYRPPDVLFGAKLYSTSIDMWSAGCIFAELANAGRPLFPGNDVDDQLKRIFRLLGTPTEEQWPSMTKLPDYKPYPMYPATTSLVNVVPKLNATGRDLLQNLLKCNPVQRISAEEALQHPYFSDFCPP
Chain of Cyclin-dependent kinase 5/CDK5 activator 1 (Q15078 whole entry, further chain, the tested form may be a part): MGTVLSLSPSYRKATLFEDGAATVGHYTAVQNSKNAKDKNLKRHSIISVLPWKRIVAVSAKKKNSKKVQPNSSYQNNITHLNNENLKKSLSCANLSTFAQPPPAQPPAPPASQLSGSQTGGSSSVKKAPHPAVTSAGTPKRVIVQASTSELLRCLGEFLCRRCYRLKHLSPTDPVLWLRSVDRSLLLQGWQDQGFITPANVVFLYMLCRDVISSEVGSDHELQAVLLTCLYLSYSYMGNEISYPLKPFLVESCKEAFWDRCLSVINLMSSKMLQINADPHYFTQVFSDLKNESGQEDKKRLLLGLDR
Chain of Cyclin-dependent kinase 1/cyclin B1 (Homo sapiens) (P06493 whole entry, looked up, the tested form may be a part): as the sequence (P06493 whole entry) above
Chain of Cyclin-dependent kinase 1/cyclin B1 (Homo sapiens) (P14635 whole entry, looked up, the tested form may be a part): as the sequence (P14635 whole entry, further chain) above
Chain of Cyclin-dependent kinase 5/CDK5 activator 1 (Homo sapiens) (Q00535 whole entry, the tested form may be a part): as the sequence (Q00535 whole entry, the tested form may be a part) above
Chain of Cyclin-dependent kinase 5/CDK5 activator 1 (Homo sapiens) (Q15078 99-307 partner limits assumed): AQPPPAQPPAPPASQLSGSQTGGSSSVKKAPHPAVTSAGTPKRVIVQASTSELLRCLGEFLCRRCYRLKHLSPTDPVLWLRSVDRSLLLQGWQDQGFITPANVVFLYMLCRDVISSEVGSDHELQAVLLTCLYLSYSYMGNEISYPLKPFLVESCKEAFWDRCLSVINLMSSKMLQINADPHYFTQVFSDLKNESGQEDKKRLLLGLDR

As for `COc1ccc2oc3ncc(OCc4ccccc4)c(-c4ccccc4)c3c2c1`, the Ki in experiment [1] was 25.1 µM.
Regarding `Oc1ccc2oc3ncc(OCc4ccccc4)c(-c4ccccc4)c3c2c1`, the inhibition entry in experiment [2], in experiment [3] and in experiment [4] was “Active” each time.
Regarding `CCNC(=O)c1cnc2oc3ccc(O)cc3c2c1-c1ccccc1`, the inhibition constant Ki was 2.1 µM in experiment [5], 16.7 µM in experiment [1] and “ND(Insoluble)” in experiment [4] (sf9).
Regarding `CNC(=O)c1cnc2oc3ccc(O)cc3c2c1-c1ccccc1`, the values for the Ki in experiment [5], in experiment [1] and in experiment [4] (read-out: Ki) were greater than 1000 µM, greater than 1000 µM and 9 µM, respectively.
As to `COc1cc2c(oc3ncc(OCc4ccccc4)c(-c4ccccc4)c32)c2ccccc12`, the Ki in experiment [5], in experiment [1] and in experiment [4] (read-out: Ki) was greater than 1000 µM in each case.
Turning to `COc1cc2oc3ncc(OCc4ccccc4)c(-c4ccccc4)c3c2c(OC)c1O`, the results for the Ki in experiment [5], in experiment [1] and in experiment [4] (read-out: Ki) were 0.2 µM, 13.6 µM and 5.4 µM, respectively.
In the same order, the values of `NCCNC(=O)c1cnc2oc3ccc(O)cc3c2c1-c1ccccc1` are 2 µM, 12.9 µM and 4.8 µM.
As to `COc1cc2oc3ncc(OCc4ccccc4)c(-c4ccccc4)c3c2cc1O`, the Ki is 1.9 µM in experiment [5], 13.8 µM in experiment [1] and “ND(Insoluble)” in experiment [4] (sf9).
As for `CCCNC(=O)c1cnc2oc3ccc(O)cc3c2c1-c1ccccc1`, the Ki in experiment [5] is 1.6 µM; in experiment [1], 14.6 µM; in experiment [4] (read-out: Ki), 4.4 µM.

For the origin of these results see ChEMBL document CHEMBL3217736, “Novel aspects in structureactivity relationships of profiled 1-aza-9-oxafluorenes as inhibitors of Alzheimer's disease-relevant kinases cdk1, cdk5 and gsk3” (Medchemcomm, 2012).
